One assay has as its system C57B16/J mice. Put plainly: Intraperitoneal Chemerin15-mouse alone (no zymosan): peritoneal cell recruitment and TNFα. Type of assay: in vivo. Conditions: 0.32 ng/kg i.p., 4 h. Here is the method:
Male C57B16/J mice (8-12 weeks) were injected intra-peritoneally with 0.5 ml PBS or 0.5 ml Chemerin15-mouse (0.32 ng/kg). After 4 hours three animals per treatment group were sacrificed and peritoneal cavities washed with 5 ml PBS-3 mM EDTA. Total cell counts were obtained using Trypan blue exclusion test. For determination of cellular composition (Neutrophils vs mononuclear phagocytes), cells were blocked with 2.4G2 anti-FcgRII/III mAB for 5 mins and stained with PE-conjugated anti-mouse Ly-6G and FITC-conjugated anti-mouse 7/4 mAB for 10 mins. Cells were fixed in 1% formaldehyde prior to FACS analysis with CellQuest software. Gates were constructed around two populations, the neutrophils (N; 7/4^high, Ly-6G^high) and inflammatory monocytes (Mo; 7/4^high, Ly-6G^low). C15 refer to Chemerin15-mouse. p<0.01 ** relative to PBS-treated. Ns refers to no statistically significant difference p>0.05.

In assay [1] the test system is Murine peritoneal macrophages (PMΦ). The assay is described as follows: Macrophage cytokine mRNA levels by qRT-PCR (IL-10, TGFβ), normalized to HPRT. The assay is classed as cell-based, mouse. The note with it: chemerin. The procedure:
FIGS. 1A-F—FIGS. 1A and 1B illustrate that Chemerin140 suppresses production of inflammatory mediators by macrophages in a proteolysis dependent fashion. Supernatants from macrophages or activated macrophages (treated with 100 ng/ml LPS and 20 ng/ml interferon gamma were assayed for cytokine expression using Luminex and ELISA assays. Cells were incubated in the presence or absence of recombinant murine chemerin or dexamethasone at the indicated doses and in the absence or presence of the protease inhibitor leupeptin ([…]). FIG. 1C—Macrophage cytokine mRNA levels were quantitated by qRT-PCR (IL-10, TGFβ) and normalized to HPRT. FIG. 1D—PMΦ were pre-treated with chemerin (0.1-1 pM)±pertussis toxin (PTX; 200 ng/ml) prior to LPS/IFNγ-challenge. FIG. 1E—PMΦ were pre-treated with chemerin (1 pM) for 1 h±PTX and then stimulated with LPS/IFNγ for 4 h, 8 h or 15 h. ***, p<0.001; **, p<0.01; *, p<0.05 relative to LPS/IFNγ-treated samples. ###, p<0.001; ##, p<0.01; #, p<0.05 relative to chemerin-treated samples. […]
Total RNA was extracted using Qiagen RNeasy kits, reverse transcribed and subjected to qRT-PCR using the Sybr-Green method. Data was analysed using the 2-ΔΔCT method (Livak, K. J. & Schmittgen T. D. (2001), Methods 25:402-408).

This note sets out measurements from patent US8906865B2, “Treatment of inflammation and/or endotoxic shock” (ISIS Innovation Limited, priority 2007, dated 2014).

“AGEDPHGYFLPGQFA (listed as Mus sp.) [C15]”: in the assay with C57B16/J mice, the “Monocyte or neutrophil migration after peptide alone (FIG. 9)” value was “does not cause monocyte or neutrophil migration” and the “Peritoneal TNFα after peptide alone (FIG. 9)” value was “significant reduction in TNFα”.

B1: Chemerin: 140 amino acid mouse Chemerin protein of Sequence ID no: 34 (protein, listed as Mus sp.)
chain: TVGTEPELSETQRRSLQVALEEFHKHPPVQLAFQEIGVDRAEEVLFSAGTFVRLEFKLQQTNCPKKDWKKPECTIKPNGRRRKCLACIKMDPKGKILGRIVHCPILKQGPQDPQELQCIKIAQAGEDPHGYFLPGQFAFS
As to B1, in assay [1], the “Induction of IL-10 mRNA expression (FIG. 1C)” value is 89% and the “Induction of TGFβ mRNA expression (FIG. 1C)” value is reported as 54%.
